Data reported in patent US20070110802A1, “Wet granulation process” (priority 2005, published 2007).

Tests used:
[1] = pH dependent aqueous solubility of Compound A; assay type: physicochemical
Protocol: The material was analyzed for hydrate formation.

Protocol for physchem: The pKa of a compound is determined experimentally or it can be calculated, such as with ACDLABS8.0 software.

Cc1c(Cl)cccc1S(=O)(=O)Nc1nc(CCN2CCOCC2=O)cs1 [Compound A, 3-chloro-2-methyl-N-(4-(2-(3-oxo-4-morpholinyl)ethyl)-1,3-thiazol-2-yl)benzenesulfonamide]
pKa (physchem): ~6.6 | pH dependent solubility (FIG. 9) ([1]; solubility versus pH): solubility increases at a pH consistent with the approximate pKa value | solubility ([1]; water, pH 4, aqueous buffer): < 15 µg/mL
